In patent US10307410B2, “Mcl-1 modulating compounds for cancer treatment” (CENTRE REGIONAL DE LUTTE CONTRE LE CANCER FRANCOIS BACLESSE, priority 2014, dated 2019):

Experiments:
Assay type in all cases: cell-based
[1] = test system: IGROV1-R10 ovarian cancer cells; assay: DNA content histograms (sub-G1) by flow cytometry; conditions: Molecule + Bcl-xL targeting siRNA
Method: (§1) Exponentially growing cells were transfected by siRNA as described below, and after 48 h, cells were continuously exposed to (Het)aromatic oligosystems (10, 25 or 50 μM) dissolved in DMSO (<0.1% of total volume) for 4 to 24 supplementary hours.
Cells were seeded in 25 cm^2 flasks the day before to reach 30-50% confluency at the time of transfection. The transfection INTERFERin™ reagent (Polyplus Transfection, Strasbourg. France) was added to siRNA diluted in Opti-MEM® reduced serum medium (Invitrogen, Cergy-Pontoise, France) and complexes formation was allowed to proceed for 15 min at RT before being applied to cells. […]
Adherent and floating cells were pooled, washed with 1×PBS and centrifuged at 200 g for 5 min before staining by Annexin V, propidium iodide or both, as recommended by the manufacturer (Roche Diagnostic, Indianapolis, USA). Briefly, 100 μl of Annexin V—Flit or propidium iodide or both were added on the cells pellet (10^6 cells) and incubated 15 minutes at room temperature in obscurity. 500 μl of sample buffer was then added on the suspensions that were thereafter analyzed using a Gallios flow cytometer (Beckman Coulter, Roissy, France) and cell cycle distribution was determined using Kaluza acquisition software (Beckman Coulter).

[2] = test system: IGROV1-R10 ovarian cancer cells; assay: PARP and caspase 3 cleavage by western blot; parameters: key to PARP cleavage: +: a little band corresponding to the 85 kDa cleaved form of PARP is observable on the western blot; ++: a band corresponding to the 85 kDa cleaved form of PARP is clearly observable on the western blot; +++: PARP in nearly completely cleaved; conditions: Molecule + Bcl-xL targeting siRNA
Method: as §1
(§2) Cells were seeded in 25 cm^2 flasks the day before to reach 30-50% confluency at the time of transfection. The transfection INTERFERin™ reagent (Polyplus Transfection, Strasbourg. France) was added to siRNA diluted in Opti-MEM® reduced serum medium (Invitrogen, Cergy-Pontoise, France) and complexes formation was allowed to proceed for 15 min at RT before being applied to cells. The final siRNA concentration in the flasks was 20 nM.
Cells were rinsed with ice-cold PBS, suspended in a lysis buffer [RIPA:NaCl 150 mM, Tris (pH 8) 50 mM, Triton X100 1%, PMSF 4 mM, EDTA 5 mM, NaF 10 mM, NaPPi 10 mM, Na3OV4 1 mM, aprotinin 0.5 μl/ml and 4.6 ml ultra pure water] and incubated on ice for 30 minutes. Lysates were collected after centrifugation (13200 g, 10 min, 4° C.) and protein concentrations were determined using the Bradford assay (Bio-Rad, Hercules, USA). 20 μg of protein were separated by SDS-PAGE on a 4-12% gradient polyacrylamide gel (Invitrogen, Cergy-Pontoise, France) and transferred to Hybond-PVDF membranes (Amersham, Orsay, France). After blocking non-specific binding sites for 1 hour at RT by 5% (w/v) non-fat dry milk in TBS with 0.1% (v/v) Tween20 (T-TBS), the membranes were incubated overnight at 4° C. with the following rabbit monoclonal antibody: PARP, caspase-3 and Bcl-xL, Bim (Cell Signaling Technology, Ozyme, Saint-Quentin-en-Yvelines, France), Mcl-1 (Santa Cruz, Le Perray-en-Yvelines, France), HSP-70, Noxa (Calbiochem, Fontenay-sous-Bois, France), (Cell Signalling) and Actin (Sigma-Aldrich, Saint-Quentin Fallavier, France). Membranes were then washed with T-TBS and incubated for 1 hour with the appropriate horseradish peroxidase-conjugated anti-rabbit or anti-mouse (Amersham, Orsay, France) secondary antibodies. Revelation was done using a luminescent Image Analyzer (GE Healthcare, Orsay, France).

[3] = test system: IGROV1-R10 ovarian cancer cells; assay: Nuclear morphology after DAPI staining; parameters: key to Apoptotic nuclear features: +: a few condensed or fragmented nuclei are observable after DAPI staining; ++: numerous condensed or fragmented nuclei are observable after DAPI staining (20-50%); +++: most of the nuclei are condensed or fragmented; conditions: Molecule + Bcl-xL targeting siRNA, DAPI staining
Method: as §1, §2
After treatment, both detached and adherent cells were pooled after trypsinization, applied to a polylysine-coated glass slide by cytocentrifugation and fixed with a solution of ethanol/chloroform/acetic acid (6:3:1). The preparations were then incubated for 15 min at room temperature with 1 μg/ml DAPI solution (Boehringer Mannheim-Roche, Mannheim, Germany), washed in distillated water, mounted under a coverslip in Mowiol (Calbiochem) and analyzed under a fluorescence microscope (BX51, Olympus, Rungis, France).
Cells were fixed with 2.5% glutaraldehyde in PBS buffer, included in agar, rinsed in Sorensen's buffer, post-fixed in osmium tetroxide 1% in Sorensen's buffer, deshydrated in ethanol and embedded in EPON resin. Ultrathin sections were cut and stained with uranyl acetate and lead citrate and examined using a JEOL1011 transmission electron microscope.

[4] = test system: IGROV1-R10 ovarian cancer cells; assay: Cellular morphology / cell detachment, molecule alone or with Bcl-xL targeting siRNA; conditions: Molecule + Bcl-xL targeting siRNA
Method: as §1, §2

Compound | Sub-G1 (%) [1] | PARP cleavage [2] | Apoptotic nuclear features [3] | Cell detachment [4]
Cc1cc(-c2ncc(-c3ccccc3)cc2/C=C/c2ccccc2)cnc1-c1ccccc1 [compound 30814, 3-methyl-2-phenyl-5-(5-phenyl-3-styrylpyridin-2-yl)pyridine] | 37.2% | + | + | –
COc1ccc(-c2cnc(-c3cnc(-c4ccc(OC)c(OC)c4)c(C)c3)c(/C=C/c3ccccc3)c2)cc1OC [compound 30846, 2-(3,4-dimethoxyphenyl)-5-(5-(3,4-dimethoxyphenyl)-3-styrylpyridin-2-yl)-3-methylpyridine] | 33.1% | – | + | –
COc1cc(-c2cnc(-c3cnc(-c4cc(OC)c(OC)c(OC)c4)c(C)c3)c(/C=C/c3ccccc3)c2)cc(OC)c1OC [compound 30847, 5-(3,4,5-trimethoxyphenyl)-2-(6-(3,4,5-trimethoxyphenyl)-5-methylpyridin-3-yl)-3-styrylpyridine] | 22% | – | + | ± (very few cells were detached from the support (less than 10%))
COc1ccc(-c2cnc(-c3cnc(-c4cc(OC)c(OC)c(OC)c4)c(C)c3)c(/C=C/c3ccccc3)c2)cc1OC [compound 30849, 5-(3,4-dimethoxyphenyl)-2-(6-(3,4,5-trimethoxyphenyl)-5-methylpyridin-3-yl)-3-styrylpyridine] | 19.9% | – | + | –
COc1ccc(-c2ncc(-c3ncc(-c4cc(OC)c(OC)c(OC)c4)cc3/C=C/c3ccccc3)cc2C)cc1OC [compound 30850, 5-(3,4,5-trimethoxyphenyl)-2-(6-(3,4-dimethoxyphenyl)-5-methylpyridin-3-yl)-3-styrylpyridine] | 20.2% | – | + | –
Cc1cc(-c2ncc(-c3ccc(C#N)cc3)cc2/C=C/c2ccccc2)cnc1-c1ccc(C#N)cc1 [compound 30854, 3-methyl-2-(4-cyanophenyl)-5-(5-(4-cyanophenyl)-3-styrylpyridin-2-yl)pyridine] | 24.3% | – | + | ± (very few cells were detached from the support (less than 10%))
Cc1cc(-c2ncc(-c3sccc3C)cc2/C=C/c2ccccc2)cnc1-c1sccc1C [compound 31336, 3-methyl-2-(3-methylthiophen-2-yl)-5-(5-(3-methylthiophen-2-yl)-3-(E)-styrylpyridin-2-yl)pyridine] | 48.8% | – | ++ (numerous condensed or fragmented nuclei are observable after DAPI staining (20-50%)) | –
Cc1cc(-c2ncc(-c3ccccc3)cc2/C=C/c2ccccc2)cnc1-c1cccnc1 [compound 31348, 3-methyl-5-(5-phenyl-3-styrylpyridin-2-yl)-2-(pyridin-3-yl)pyridine] | 58.8% | +++ | +++ | –
Cc1cc(-c2ncc(-c3cccnc3)cc2/C=C/c2ccccc2)cnc1-c1ccccc1 [compound 31349, 3-(6-(5-methyl-6-phenylpyridin-3-yl)-5-styrylpyridin-3-yl)pyridine] | 59.2% | +++ | +++ | –
Cc1cc(-c2ncc(-c3cnc(Cl)n3C)cc2/C=C/c2ccccc2)cnc1-c1cnc(Cl)n1C [compound 31351, 5-(2-chloro-1-methyl-1H-imidazol-5-yl)-2-(6-(2-chloro-1-methyl-1H-imidazol-5-yl)-5-methylpyridin-3-yl)-3-styrylpyridine] | 56.7% | – | +++ | –
Cc1cc(-c2ncc(-c3cncnc3)cc2/C=C/c2ccccc2)cnc1-c1cncnc1 [compound 31361, 5-(3-methyl-5-(5-(pyrimidin-5-yl)-3-styrylpyridin-2-yl)pyridin-2-yl)pyrimidine] | 35.2% | – | ++ (numerous condensed or fragmented nuclei are observable after DAPI staining (20-50%)) | –
Cc1cc(-c2ncc(-c3ccn[nH]3)cc2/C=C/c2ccccc2)cnc1-c1ccn[nH]1 [compound 31363, 2-(5-methyl-6-(1H-pyrazol-5-yl)pyridin-3-yl)-5-(1H-pyrazol-5-yl)-3-styrylpyridine] | 63.7% | – | +++ | –
Cc1cc(-c2ncc(-c3cccnc3)cc2/C=C/c2ccccc2)cnc1-c1cccc(O)c1 [compound 31364, 3-(3-methyl-5-(5-(pyridin-3-yl)-3-styrylpyridin-2-yl)pyridin-2-yl)phenol] | 39.6% | – | ++ (numerous condensed or fragmented nuclei are observable after DAPI staining (20-50%)) | –
Cc1cc(-c2ncc(-c3cccnc3)cc2/C=C/c2ccccc2)cnc1-c1cccc(C/C(N)=N/O)c1 [compound 31367, (1Z)—N′-hydroxy-2-(3-(3-methyl-5-(5-(pyridin-3-yl)-3-styrylpyridin-2-yl)pyridin-2-yl)phenyl)acetamidine] | 52.7% | – | +++ | –
